Measured values as given in patent US4816449A, “Immunotherapeutic anti-inflammatory peptide agents” (Immunetech Pharmaceuticals, priority 1986, dated 1989).
Where a SMILES comes first, the peptide text is derived from it. Where no end group is shown, it is not given here.

Tests used:
[1] = tested on: human natural killer (NK) cell-induced cytotoxicity against K562 human erythroleukemia cells; test: natural killer (NK) cell assay, chromium 51 release; type: cell-based
Protocol: 1. To calculate percent inhibition, the average of the three dilutions of
2. N K effector cells were human mononuclear cells freshly isolated by
when incubated with normal human mononuclear cells (lymphocytes and monocytes) separated by ficoll-metronidazole gradient. […] E., et al., J. Clin. Invest. 67:1324, 1981).
The target cells used were a human erythroleukemia cell line K562 which has molecular structures recognized by NK cells. The K562 targets were prepared by incubating them with the radioactive isotope chromium 51 which is incorporated within the cells. The cells were then washed to remove externally adherent chromium 51 and 20,000 K562 cells were added to 400,000, 200,000 and 100,000 mononuclear cells to provide NK killer-to-target ratio of 20 to 1, 10 to 1, and 5 to 1, respectively, in a final volume of 200 microliters. After a 3-hour incubation at 37° C. in a 5% CO2 atmosphere, the amount of chromium 51 in the supernatent (released from dead target cells) was counted to quantitate the amount of NK killing activity. The killing activity of peptide-treatedcells was compared to non-peptide treated cells to assess the peptide's effect on NK killing activity.

[2] = target: T1, IgE Fc receptors on a human lymphoblastoid cell line (wil-2wt) (Homo sapiens, UniProt P06734); settings: Hamburger, Immunology 38, 781 (1979); cited from earlier work
T1 construct: IgE Fc receptors on a human lymphoblastoid cell line (wil-2wt); host or cells: wil-2wt human lymphoblastoid cell line (endogenous receptor)
T1 sequence (P06734 1-321): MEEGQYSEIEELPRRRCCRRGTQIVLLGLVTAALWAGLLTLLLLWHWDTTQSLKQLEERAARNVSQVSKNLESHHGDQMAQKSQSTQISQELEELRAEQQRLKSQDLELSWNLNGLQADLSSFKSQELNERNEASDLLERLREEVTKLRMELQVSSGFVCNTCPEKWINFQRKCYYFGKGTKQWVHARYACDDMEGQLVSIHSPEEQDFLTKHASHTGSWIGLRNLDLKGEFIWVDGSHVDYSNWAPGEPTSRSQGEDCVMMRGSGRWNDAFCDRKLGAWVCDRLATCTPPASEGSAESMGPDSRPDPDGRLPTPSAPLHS

human mast cells = settings: Stanworth et al. 1979; cited from earlier work
rodent mast cells = settings: Stanworth et al. 1979; cited from earlier work
[3] = tested on: human monocyte IgG Fc receptors; settings: cited from earlier work
mouse macrophages = settings: Stanworth, Mol. Immunol. 19, 1245 (1982); cited from earlier work
[4] = tested on: macrophage IgG Fc receptors of mice; settings: Stanworth, Mol. Immunol. 19, 1245 (1982); cited from earlier work
[5] = peptide 100 μg/ml, (killer-to-target ratio 20 to 1)

Compound | % cytotoxicity ([1]; peptide 25 μg/ml, 5 to 1) | % cytotoxicity ([1]; peptide 25 μg/ml, 10 to 1) | % cytotoxicity ([1]; peptide 25 μg/ml, 20 to 1) | % cytotoxicity ([1]; peptide 50 μg/ml, 5 to 1) | % cytotoxicity ([1]; peptide 50 μg/ml, 10 to 1) | % cytotoxicity ([1]; peptide 50 μg/ml, 20 to 1) | % cytotoxicity ([1]; peptide 100 μg/ml, 5 to 1) | % cytotoxicity ([1]; peptide 100 μg/ml, 10 to 1) | % cytotoxicity [1, 5] | other results
C[C@H](N)C(=O)N[C@@H](CCCNC(=N)N)C(=O)N[C@@H](Cc1c[nH]cn1)C(=O)N[C@@H](CO)C(=O)O [Ala--Arg--His--Ser, Ala-Arg-His-Ser] (H-ARHS-OH) | 12.5% | 19.4% | 24.8% | 10.4% | 20.7% | 26.3% | 10.6% | 18.5% | 21.8% | –
C[C@H](NC(=O)[C@@H](N)CC(=O)O)C(=O)N[C@@H](CCCNC(=N)N)C(=O)N[C@@H](Cc1c[nH]cn1)C(=O)O [Asp--Ala--Arg--His, Asp-Ala-Arg-His] (H-DARH-OH) | 6.8% | 12.9% | 19.3% | 7.5% | 12.8% | 13.8% | 10.5% | 16.4% | 24.5% | –
C[C@H](NC(=O)[C@H](CC(=O)O)NC(=O)[C@@H]1CCCN1)C(=O)N[C@@H](CCCNC(=N)N)C(=O)O [Pro--Asp--Ala-- Arg, Pro-Asp-Ala-Arg] (H-PDAR-OH) | 10.1% | 17.8% | 22.7% | 10.3% | 15.5% | 23.1% | 5.6% | 10.4% | 17.1% | –
PDARHS [hexapeptide derived from Cε 4 at aa 476-481] | – | – | – | – | – | – | – | – | – | blocking of human IgE-binding to IgE Fc receptors on wil-2wt cells [2]: could block
PRKTKGSGFFVF [peptide identical to portion of Cε 4 of human IgE, aa 495-506] | – | – | – | – | – | – | – | – | – | degranulation of human mast cells (human mast cells): able to cause degranulation; degranulation of rodent mast cells (rodent mast cells): able to cause degranulation
QYDSTYR [peptide identical to IgG aa 295-301] | – | – | – | – | – | – | – | – | – | blocking of IgG binding to human monocyte IgG Fc receptors [3]: could slightly block
VFSRLEVTRAE [peptide identical to a portion of Cε 4 of human IgE at aa 505-515] | – | – | – | – | – | – | – | – | – | effect on binding of 125I-human IgG to mouse macrophages (mouse macrophages): marked enhancement
YSKLTVDKSR [decapeptide from human IgG, identical to IgG aa 407-416] | – | – | – | – | – | – | – | – | – | blocking of human IgG binding to macrophage IgG Fc receptors of mice [4]: blocked human IgG binding
